Columns and labels:
[1] = mn = molality of the nth substance listed, in mol/kg; details: 298.15 K, 101.3 kPa, Liquid
[2] = osmotic coefficient (dimensionless); mn = molality of the nth substance listed, in mol/kg; details: 298.15 K, Liquid, isopiestic method

[Cl-].[Cl-].[Zn+2] [zinc chloride] + CCO
Details | mass density [kg/m3] | osmotic coefficient
[1], m1 = 0.0018 | 785.28 | –
[1], m1 = 0.0035 | 785.46 | –
[1], m1 = 0.0053 | 785.67 | –
[1], m1 = 0.0087 | 786.03 | –
[1], m1 = 0.0106 | 786.24 | –
[1], m1 = 0.0127 | 786.47 | –
[1], m1 = 0.0167 | 786.9 | –
[1], m1 = 0.0185 | 787.09 | –
[1], m1 = 0.0227 | 787.56 | –
[1], m1 = 0.033 | 788.63 | –
[1], m1 = 0.0394 | 789.3 | –
[1], m1 = 0.0471 | 790.1 | –
[1], m1 = 0.051 | 790.5 | –
[1], m1 = 0.0551 | 790.94 | –
[1], m1 = 0.0624 | 791.69 | –
[1], m1 = 0.0691 | 792.36 | –
[1], m1 = 0.0734 | 792.8 | –
[1], m1 = 0.0781 | 793.28 | –
[1], m1 = 0.0825 | 793.72 | –
[1], m1 = 0.0921 | 794.68 | –
[1], m1 = 0.1035 | 795.81 | –
[1], m1 = 0.1713 | 802.4 | –
[1], m1 = 0.2776 | 812.39 | –
[1], m1 = 0.4056 | 824.04 | –
[1], m1 = 0.5788 | 839.34 | –
[1], m1 = 0.6875 | 848.7 | –
[1], m1 = 0.8432 | 861.8 | –
[1], m1 = 1.086 | 881.52 | –
[1], m1 = 1.132 | 885.11 | –
[1], m1 = 1.312 | 899.05 | –
[1], m1 = 1.346 | 901.59 | –
[1], m1 = 1.542 | 916.09 | –
[1], m1 = 1.689 | 926.54 | –
[1], m1 = 1.883 | 940 | –
[1], m1 = 2.041 | 950.61 | –
[1], m1 = 2.204 | 961.4 | –
[1], m1 = 2.402 | 974.29 | –
[1], m1 = 2.541 | 983.29 | –
[1], m1 = 2.776 | 998.74 | –
[2], m1 = 0.219 | – | 0.359
[2], m1 = 0.4046 | – | 0.332
[2], m1 = 0.4882 | – | 0.352
[2], m1 = 0.5854 | – | 0.358
[2], m1 = 0.7111 | – | 0.36
[2], m1 = 0.7875 | – | 0.379
[2], m1 = 0.8946 | – | 0.383
[2], m1 = 1.057 | – | 0.405
[2], m1 = 1.087 | – | 0.403
[2], m1 = 1.205 | – | 0.416
[2], m1 = 1.227 | – | 0.422
[2], m1 = 1.353 | – | 0.441
[2], m1 = 1.446 | – | 0.443
[2], m1 = 1.567 | – | 0.458
[2], m1 = 1.666 | – | 0.472
[2], m1 = 1.765 | – | 0.482
[2], m1 = 1.889 | – | 0.494
[2], m1 = 1.973 | – | 0.506
[2], m1 = 2.115 | – | 0.519
[2], m1 = 2.233 | – | 0.542
[2], m1 = 2.408 | – | 0.56
[2], m1 = 2.455 | – | 0.571
[2], m1 = 2.61 | – | 0.594
[2], m1 = 2.712 | – | 0.616

From the NIST ThermoML archive (doi:10.1016/j.fluid.2004.11.022)
